Experimental data as given in US12186353B2, “Method of reducing neuronal microtubule binding protein Tau (Tau) levels” (ADAERATA, LIMITED PARTNERSHIP, priority 2018, dated 2025).
Peptide text beside a SMILES is read from it. * marks the point of attachment. Cbz = O=C(OCc1ccccc1)*

B1: Numb-66: 66 kDa Numb isoform with long PTB domain and short PRR; human isoform 2 (SEQ ID NO: 3) (protein)
chain: MNKLRQSFRRKKDVYVPEASRPHQWQTDEEGVRTGKCSFPVKYLGHVEVDESRGMHICEDAVKRLKAERKFFKGFFGKTGKKAVKAVLWVSADGLRVVDEKTKDLIVDQTIEKVSFCAPDRNFDRAFSYICRDGTTRRWICHCFMAVKDTGERLSHAVGCAFAACLERKQKREKECGVTATFDASRTTFTREGSFRVTTATEQAEREEIMKQMQDAKKAETDKIVVGSSVAPGNTAPSPSSPTSPTSDATTSLEMNNPHAIPRRHAPIEQLARQGSFRGFPALSQKMSPFKRQLSLRINELPSTMQRKTDFPIKNAVPEVEGEAESISSLCSQITNAFSTPEDPFSSAPMTKPVTVVAPQSPTFQGTEWGQSSGAASPGLFQAGHRRTPSEADRWLEEVSKSVRAQQPQASAAPLQPVLQPPPPTAISQPASPFQGNAFLTSQPVPVGVVPALQPAFVPAQSYPVANGMPYPAPNVPVVGITPSQMVANVFGTAGHPQAAHPHQSPSLVRQQTFPHYEASSATTSPFFKPPAQHLNGSAAFNGVDDGRLASADRHTEVPTGTCPVDPFEAQWAALENKSKQRTNPSPTNPFSSDLQKTFEIEL
modifications: homo sapiens
B2: Numb-65: 65 kDa Numb isoform with short PTB domain and short PRR; human isoform 4 (SEQ ID NO: 7) (protein)
chain: MNKLRQSFRRKKDVYVPEASRPHQWQTDEEGVRTGKCSFPVKYLGHVEVDESRGMHICEDAVKRLKATGKKAVKAVLWVSADGLRVVDEKTKDLIVDQTIEKVSFCAPDRNFDRAFSYICRDGTTRRWICHCFMAVKDTGERLSHAVGCAFAACLERKQKREKECGVTATFDASRTTFTREGSFRVTTATEQAEREEIMKQMQDAKKAETDKIVVGSSVAPGNTAPSPSSPTSPTSDATTSLEMNNPHAIPRRHAPIEQLARQGSFRGFPALSQKMSPFKRQLSLRINELPSTMQRKTDFPIKNAVPEVEGEAESISSLCSQITNAFSTPEDPFSSAPMTKPVTVVAPQSPTFQGTEWGQSSGAASPGLFQAGHRRTPSEADRWLEEVSKSVRAQQPQASAAPLQPVLQPPPPTAISQPASPFQGNAFLTSQPVPVGVVPALQPAFVPAQSYPVANGMPYPAPNVPVVGITPSQMVANVFGTAGHPQAAHPHQSPSLVRQQTFPHYEASSATTSPFFKPPAQHLNGSAAFNGVDDGRLASADRHTEVPTGTCPVDPFEAQWAALENKSKQRTNPSPTNPFSSDLQKTFEIEL
modifications: homo sapiens
B3: Numb-71: 71 kDa Numb isoform with short PTB domain and long PRR; human isoform 3 (SEQ ID NO: 6) (protein)
chain: MNKLRQSFRRKKDVYVPEASRPHQWQTDEEGVRTGKCSFPVKYLGHVEVDESRGMHICEDAVKRLKATGKKAVKAVLWVSADGLRVVDEKTKDLIVDQTIEKVSFCAPDRNFDRAFSYICRDGTTRRWICHCFMAVKDTGERLSHAVGCAFAACLERKQKREKECGVTATFDASRTTFTREGSFRVTTATEQAEREEIMKQMQDAKKAETDKIVVGSSVAPGNTAPSPSSPTSPTSDATTSLEMNNPHAIPRRHAPIEQLARQGSFRGFPALSQKMSPFKRQLSLRINELPSTMQRKTDFPIKNAVPEVEGEAESISSLCSQITNAFSTPEDPFSSAPMTKPVTVVAPQSPTFQANGTDSAFHVLAKPAHTALAPVAMPVRETNPWAHAPDAANKEIAATCSGTEWGQSSGAASPGLFQAGHRRTPSEADRWLEEVSKSVRAQQPQASAAPLQPVLQPPPPTAISQPASPFQGNAFLTSQPVPVGVVPALQPAFVPAQSYPVANGMPYPAPNVPVVGITPSQMVANVFGTAGHPQAAHPHQSPSLVRQQTFPHYEASSATTSPFFKPPAQHLNGSAAFNGVDDGRLASADRHTEVPTGTCPVDPFEAQWAALENKSKQRTNPSPTNPFSSDLQKTFEIEL
modifications: homo sapiens

How the values were obtained:
Tau::GFP fusion protein = test: Intracellular Tau::GFP fluorescence in stable inducible HEK293 cells with proteasome or lysosome inhibitor; assay type: cell-based; conditions: inhibitor 25 uM for 4 h before fixation
Experimental: FIG. 7A Stable inducible cell line HEK293 that express a Tau::GFP fusion protein was transfected with Control Myc or Numb72::Myc, and the Tau::GFP expression was activated by adding Doxycycline 6 h later. The cells were fixed 48 h later and stained for Myc. FIG. 7B. The mean intensity (±SEM) of intracellular Tau::GFP fluorescence in transfected cells was quantified. Cells were treated with vehicle, MG132 (a proteasome inhibitor, 25 uM) or Chloroquine (a lysosome inhibitor, 25 uM) for 4 h before fixation and Myc staining. Quantification represents mean intensity +/− SEM, *p≤0.01; Anova 1-way test.
The potential role of the proteasome and of the lysosome on the ability of Numb to reduce Tau levels was assessed. A stable inducible cell line (HEK293) expressing a Tau::GFP fusion protein was transfected with
Numb72 or a control empty vector. The intracellular Tau::GFP levels was compared when the cells were treated with a proteasome inhibitor (MG132), a lysosome inhibitor (Chloroquine) or a control (vehicle). […] (FIGS. 7A-B).

RGCs = test: RGC survival after intravitreal NMDA in Numb cKO and control mice; assay type: in vivo, mouse; conditions: sublethal doses of NMDA in the eyes, 3 days later, Numb cKO mice compared to control
Experimental: FIGS. 5A-C: Down regulation of Tau in Numb cKO RGCs rescues survival to control levels after NMDA-mediated excitotoxicity. FIG. 5A. Immunostaining for Brn3b on retina flat mounts in control and cKO 5-month-old mice 3 days after injection of saline (left panels, FIG. 5A) or NMDA (10 mM; right panels FIG. 5A). Images were taken in the ganglion cell layer. FIGS. 5B and C. Quantification of the number of Brn3b+RGCs per mm^2 in control and cKO mice 3 days after intravitreal injection of saline (FIG. 5B) or NMDA (FIG. 5C). Error bars represent SEM, * p≤0.05, n.s. non-significant; Student's t test. FIG. 5D. Analysis of Tau levels by western blot in retinal extract 24 h, 48 h or 72 h after injection of siRNA against Tau in the eye. […] FIG. 5E. […] Quantification of number of Brn3b RGC per mm^2 in control and cKO mice 72 h after injection. […]
RGCs survival was assessed by counting Brn3b-positive cells on retina flat mounts the within four square (212 um×212 um) areas around the optic nerve disc, and averaging this number per retina and calculate with the area by multiplied by the total area of square. Cell type quantification in retinal section were made by averaging the total number of positive cells for specific markers in a […] region of the central and peripheral retina on 4 different retinal sections per animal. […]

Tau = test: Western blot of Tau fusion protein levels in HEK293T cells co-expressing Numb isoforms; assay type: cell-based; conditions: 48 hours after transfection
Text: FIGS. 6A-I: Isoform Numb-72 interacts with Tau and regulates Tau level. FIG. 6A. Schematic of 4 Numb isoforms, differing with the presence or the absence of an insertion (arrowhead) in PTB domain arrowhead, and the presence or the absence of an insertion in the proline-rich region (PRR). FIG. 6B. Coimmunoprecipitation of Tau and 4 isoforms of Numb in HEK293 cells. Each Numb isoform was transfected in HEK293T cells together with a flag-tagged version of Tau and immunoprecipitation was perform 24 hours later with a flag antibody and blotted for Numb. […] FIG. 6C. Detection of Tau::GFP level in presence of 4 isoforms of Numb by western blot in HEK293. All the Numb isoforms were transfected with a Tau::GFP fusion protein in HEK293T cells and the levels of Tau::GFP was analysed by western blot 48 hours after transfection. FIG. 6D. Schematic representation of DNA construct of a human-medulloblastoma-derived cell line (DAOY) expressing human Tau fused with EGFP (Lasagna-Reeves et al., 2016). Additionally, this cell line expresses DsRed upstream of an internal ribosomal entry site (IRES), which is translated independently of the Tau-GFP protein. DsRed-IRES-Tau::EGFP expressing cells were used to assess the abundance of Tau by monitoring the Tau-GFP to DsRed fluorescence ratio. FIG. 6E. DsRed and Tau::EGF expression in Daoy cells, transfected with Myc only construct. FIGS. 6F-J. Fluorescence-activated cell sorting (FACs) analysis of the 4 Numb isoforms affected 3 days after transfection on ratio DsRed versus DsRed and GFP-positives cells compared to the control (Myc-Tag). FIG. 6K Quantification represents fold change for 5 experiments, +/− SEM, **p≤0.001; n.s. non-significant Anova 1-way test.
Numb72::Myc. HEK293T cells were transfected with Jet Prime using the following constructs Tau::Flag, Tau::GFP, Numb65, Numb66, Numb71 and Numb72.
Cells were harvested, and lysed in a NP-40 buffer (50 mm TRIS, pH 8.0, 150 mm NaCl, 1.0% NP-40 with Complete Protease Inhibitor Cocktail (Roche)). For immunoblotting, 40 μg of protein samples for in vivo blot and 10 ug for in vitro blot were loaded on a 10% acrylamide SDS-PAGE gels for separation by electrophoresis migration and then transferred onto PVDF membranes using transblot machine (Millipore). […] The primary antibody was detected with an HRP-conjugated goat anti-rabbit (1:10,000; Jackson Immunoresearch) in 0.5% dry milk in TBST. […]
To determine whether increasing the levels of Numb could affect the levels of Tau, the inventors co-expressed all isoforms of Numb together with a Tau::Venus fusion protein in HEK293T cells and analyzed the levels of Tau::Venus by western blot 48 hours after transfection.

| Molecule | effect of inhibitor on the ability of Numb72 to reduce Tau::GFP levels (Tau::GFP fusion protein) | levels of Tau::Venus by western blot (Tau) | further results |
| --- | --- | --- | --- |
| CCN(CC)CCCC(C)Nc1ccnc2cc(Cl)ccc12 (stereo not drawn) [Chloroquine] | neither the proteasome inhibitor nor the lysosome inhibitor abolished the ability of Numb72 to reduce Tau::GFP levels | – | – |
| CC(C)C[C@@H](C=O)NC(=O)[C@H](CC(C)C)NC(=O)[C@H](CC(C)C)NC(=O)OCc1ccccc1 [MG132] (Cbz-Leu-Leu-Leu-aldehyde) | neither the proteasome inhibitor nor the lysosome inhibitor abolished the ability of Numb72 to reduce Tau::GFP levels | – | – |
| CN[C@H](CC(=O)O)C(=O)O [NMDA, N-methyl-D-aspartate] | – | – | RGC numbers (RGCs): two-fold reduction of RGC numbers |
| B1 | – | significantly reduced the levels of Tau | – |
| B2 | – | did not affect Tau levels | – |
| B3 | – | did not affect Tau levels | – |
